Test results from US20110091570A1, “Compositions and Devices for Antisepsis and Anticoagulation” (priority 2008, published 2011).
Where “and” joins values, the source holds several entries; their conditions need not be identical. Equal values may be shown once.

Legend:
Balb/c mice = assay: Injection of 1% NCT solution into the tail vein of mice (tolerability); format: in vivo, mouse
Experimental: In this model, injection of 1% aqueous NCT solution was tolerated at a volume that equals approximately 10% of the total blood volume of a mouse. A 1% solution contains 55 mmol/L NCT, which is more than 1000 times greater than any physiologic concentration produced by human leukocytes.
Balb/c mice were injected into the tail vein with a sterile aqueous solution of 1% NCT. Four mice were injected with 0.05 ml, four mice with 0.1 ml, one mouse with 0.2 ml, and one mouse with 0.3 ml, respectively, of the NCT solution.
In this Example, injection of 1% aqueous NCT solution was tolerated in the mouse model at a volume that equals approximately 10% of the total blood volume of a mouse.

citrate blood = assay: Thrombin time (TT), BC Thrombin Reagent test; format: biochemical, human; conditions: for TT / TT (sec): Example 6, single volunteer; for Thrombin time (TT) / Thrombin time (TT), mean value: Example 7; for Thrombin time (TT): individual subjects; for Thrombin time (TT), mean value: mean of 11 subjects
Experimental: Whole blood was taken from volunteers and enriched with trisodium citrate (0.3 mL of a 0.106 molar solution per 3 mL whole blood) (S-Monovette®, Sarstedt, Nümbrecht, Germany). Routine coagulation tests were performed on the following samples:
The following commercial coagulation tests were performed according to the prescription of the manufacturer: prothrombin time (PT) was determined using Thromborel® S test (Dade Behring GmbH, Marburg, Germany); activated partial thromboplastin time (aPTT) was determined using Pathromtin* SL test (Dade Behring GmbH, Marburg, Germany); and thrombin time (TT) was determined using BC Thrombin Reagent test (Dade Behring GmbH, Marburg, Germany).
Whole blood was taken from a single volunteer and enriched with trisodium citrate (0.3 mL of a 0.106 molar solution per 3 mL whole blood) (S-Monovette®, Sarstedt, Nümbrecht, Germany). Portions of 1.8 mL citrate blood were mixed with 0.2 mL NCT in 0.9% saline. The following final (after dilution in blood) NCT concentrations were tested separately: 1% (55 mM); 0.5% (27.5 mM); 0.25% (13.75 mM); 0.1% (5.5 mM); 0.05% (2.75 mM); 0.025% (1.375 mM); and 0.01% (0.55 mM). A control without NCT was performed in parallel. The following commercial coagulation tests were performed according to the prescription of the manufacturer: prothrombin time (PT) was determined using Thromborel® S test (Dade Behring GmbH, Marburg, Germany), activated partial thromboplastin time (aPTT) was determined using Pathromtin* SL test (Dade Behring GmbH, Marburg, Germany); thrombin time (TT) was determined using BC Thrombin Reagent test (Dade Behring GmbH, Marburg, Germany); and fibrinogen was determined using Multifibren* U test (Dade Behring GmbH, Marburg, Germany).
(§1) Whole blood was taken from 11 volunteers and enriched with trisodium citrate (0.3 mL of a 0.106 molar solution per 3 mL whole blood) (S-Monovette®, Sarstedt, Nümbrecht, Germany). Commercial coagulation tests (as described in Example 6) were performed with the following samples: […]

Human Blood = conditions: Stief et al. [Ref 27]; cited from earlier work
[1] = tested on: purulent coated crural ulcers; conditions: purulent coated crural ulcers [Ref. 17]; cited from earlier work
Antithrombin III = Antithrombin III in citrate blood; format: biochemical, human; conditions: Example 7; for Antithrombin III: individual subjects 1-11; for Antithrombin III, mean value: mean of 11 subjects
Experimental: as §1

external otitis = conditions: human external otitis [Ref 15]; cited from earlier work
Staphylococcus aureus = conditions: local administration, mouse model [Ref 21]; cited from earlier work
[2] = Balb/c mice, sterile aqueous 1% NCT, 0.05-0.3 ml i.v.

O=S(=O)(O)CCNCl [NCT, N-chlorotaurine]
tolerated injection volume (Balb/c mice; 1% aqueous NCT solution i.v.): approximately 10 % of the total blood volume of a mouse | changes of behaviour after tail vein injection (Balb/c mice; [2]): no changes of behaviour | survival after tail vein injection (Balb/c mice; [2]): all mice survived | thrombin time (citrate blood; Example 5, 1% NCT final concentration in citrate blood): above the test limits | TT (citrate blood; 0.01% (0.55 mM) NCT final): 19.5 s | TT (citrate blood; 0.025% (1.375 mM) NCT final): 26.6 s | TT (citrate blood; 0.05% (2.75 mM) NCT final): 48.8 s | TT (citrate blood; 0.1% (5.5 mM) NCT final): 92.2 s | TT (citrate blood; 0.25% (13.75 mM) NCT final): 101.8 s | TT (sec) (citrate blood; 0.5% (27.5 mM) NCT final): >limit | TT (sec) (citrate blood; 1% (55 mM) NCT final): >limit | Thrombin time (TT) (citrate blood; 0.01% NCT): 22 sec (5×) and 24 sec (2×) and 32 sec and 23 sec (3×) | Thrombin time (TT), mean value (citrate blood; 0.01% NCT): 23.5 s | Thrombin time (TT) (citrate blood; 0.025% NCT): 44 sec (2×) and 39 sec and 59 sec and 43 sec and 52 sec and 55 sec and 48 sec and 40 sec and 45 sec and 35 sec | Thrombin time (TT), mean value (citrate blood; 0.025% NCT): 45.8 s | concentration with anticoagulant effect (not below) (Human Blood): 2 to 3 mmol/L | pain and toxicity versus chloramine T [1]: significantly less pain and was less toxic than chloramine T | Antithrombin III (Antithrombin III; 0.01% NCT): 92% and 79% and 101% and 85% and 82% and 81% and 94% and 75% and 95% and 80% and 84% | Antithrombin III, mean value (Antithrombin III; 0.01% NCT): 86.2% | Antithrombin III (Antithrombin III; 0.025% NCT): 90% and 81% and 101% and 79% (3×) and 80% and 87% and 73% and 94% and 78% | Antithrombin III, mean value (Antithrombin III; 0.025% NCT): 83.7% | efficacy versus standard medication (external otitis): more effective than a standard medication | effect on septic arthritis (Staphylococcus aureus): inhibited septic arthritis
